Reference: patent US8709406B2, “Prevention and treatment of oxidative stress disorders by gluthathione and phase II detoxification enzymes” (Brassica Foundation for ChemoProtection Research, priority 2001, dated 2014)
Like-named read-outs stand apart in the source and are kept apart here.

Columns and labels:
Format in all cases: cell-based, human
[1] = tested on: Retina Pigment Epithelium Cell; experiment: Photooxidative damage by all-trans-retinal and 365 nm light, protection by sulforaphane (cell survival); details: sulforaphane 0.00 μM
Experimental: There is accumulating evidence that chronic exposure to sunlight plays a role in some degenerative diseases, for instance, age-related macular degeneration (AMD). We have, therefore, carried out an experiment of protection of human RPE cells against photooxidative damage mediated by all-trans-retinal, which exists in human retina and is a critical component of the visual cycle.
(§1) Cell viability was determined by spectroscopic measurement of the reduction of MTT (Carmichael, J., DeGraff, W. G., Gazdar, A. F., Minna, J. D. & Mitchell, J. B. (1987) Cancer Res. 47, 936-942). The culture media were discarded after the designated incubation periods, the cells were washed three times with PBS by use of a microtiter plate washer (Ultrawash Plus, Dynex Technologies, Chantilly, Va.). Each well then received 150 μl of an MTT solution (0.5 mg/ml) in serum-free medium. The plates were incubated for 2 h at 37° C., the MTT solution was discarded, 100 μl of DMSO were added to each well, and the plates were shaken at 200 rpm on an orbital shaker for 5 min. The absorbances of the wells were determined at 555 nm with a microtiter plate reader (Spectra Max Plus, Molecular Devices, Sunnyvale, Calif.). The absorbance of reduced MIT was then compared at each inducer and oxidant concentration to that of untreated control cells that received only the vehicle in which sulforaphane (DMSO) and menadione (DMSO or PBS) were dissolved. In each experiment three identical 96-well plates were used and the means of the absorbance values, the standard deviations of these means, and their coefficients of variation were calculated.
To examine the protective effect of sulforaphane against photooxidative damage mediated by all-trans-retinal and light exposure, the cells were treated with 0-100 μM of all-trans-retinal for 2 hours and light exposure at 365 nm for 20 min after incubation with 0-5 μM of sulforaphane for 24 hours.

ARPE-19 cells = experiment: Oxidant cytotoxicity (MTT viability, median effect analysis) and protection by 24 h sulforaphane pretreatment; details: for EC50: Homo sapiens
Experimental: (§2) All experiments were performed in 96-well microliter plates. ARPE-19 and HaCaT cells were seeded at 10,000 cells per well and grown for 24 h before addition of sulforaphane, whereas L1210 cells (5,000 cells/well) were not incubated before sulforaphane treatment. Solutions of sulforaphane (5 mM) in dimethyl sulfoxide were diluted with the cognate culture medium to provide final inducer concentrations of 0.16-5.0 μM. The final DMSO concentrations were 0.1% by volume.
Tert-Butyl hydroperoxide (1 M) and 4-hydroxynonenal (25 mM) were dissolved in DMSO and diluted 1000-fold with serum-free medium before addition of serial dilutions to the microtiter plate wells. The final concentrations of DMSO were therefore less than 0.1% (by vol.). Menadione sodium bisulfite (0.5 M) and SIN-1 (0.5 M) were dissolved and added in PBS. ARPE-19 cells were exposed to menadione for 2 h and to tert-butyl hydroperoxide for 16 h, washed with PBS, and cell viability was determined by the MIT test. ARPE-19 cells were exposed to peroxynitrite for 2 h and 4-hydroxynonenal for 4 h, and the cells were then incubated in serum-free media for 22 and 20 h, respectively, washed with PBS, and cell viability was determined. The additional incubation periods were required for peroxynitrite and 4-hydroxynonenal to evoke maximal cytotoxicity.
as §1
(§3) Dose-effect analyses were performed according to the Median Effect Equation, by use of a computer program (Chou, T. C. & Hayball, M. (1996) CalcuSyn for Windows 3.1 and 95: multiple dose effect analyzer and manual for IBM-PC, Biosoft, Cambridge, U.K). The equation: fa/fu=[D/Dm]^m, where fa is the fraction of cells affected by the oxidant, fu is the fraction unaffected (i.e., 1-fa), D is the dose of oxidant required to produce the effect fa, Dm is the concentration of oxidant required to produce a 50% effect, i.e., when fa=fu, and the slope m is a measure of the sigmoidicity of the dose-response curve, and is therefore a measure of cooperativity. The results are analyzed by plotting log(fa/fu) with respect to log D of the oxidant. The computer program provides the slope (m) of the curves, and the goodness of fit (r^2) to linearity.

HaCaT cells = experiment: tert-Butyl hydroperoxide cytotoxicity (MTT, median effect analysis) and protection by sulforaphane
Experimental: Mouse L1210 leukemia cells, a gift from Dr. Joseph G. Cory, East Carolina State University, Greenville, N.C., were grown in RPMI 1640 medium supplemented with 10% horse serum. All cultures were incubated in a humidified atmosphere of 5% CO2 at 37° C. Media and sera were obtained from Life Technologies (Rockville, Md.).
as §2, §1, §3

[2] = ARPE-19, mean over sulforaphane 0-2.5 μM

CC1=C(/C=C/C(C)=C/C=C/C(C)=C/C=O)C(C)(C)CCC1 [All-trans-Retinal, all-trans-retinal, reference compound]
Survival ([1]; 365 nm light, all-trans-retinal 12.5 μM): 83.6%
Survival ([1]; 365 nm light, all-trans-retinal 25 μM): 41.9%
Survival ([1]; 365 nm light, all-trans-retinal 50 μM): 9.4%
Survival ([1]; 365 nm light, all-trans-retinal 100 μM): 3.1%
Survival ([1]; in dark, all-trans-retinal 12.5 μM): 96.3%
Survival ([1]; in dark, all-trans-retinal 25 μM): 97.6%
Survival ([1]; in dark, all-trans-retinal 50 μM): 96.8%
Survival ([1]; in dark, all-trans-retinal 100 μM): 75.0%

CCCCCC(O)C=CC=O (centres unmarked) [4-hydroxynonenal, 4-Hydroxynon-2-enal, reference compound]
m (slope of median effect plot) for 4-hydroxynonenal (ARPE-19 cells; ARPE-19, 4-hydroxynonenal 4 h, sulforaphane 0.00 μM): 2.85
mean slope m for 4-hydroxynonenal (ARPE-19 cells; [2]): 2.66
EC50 (ARPE-19 cells; ARPE-19, 4 h, ARPE-19, 4-hydroxynonenal 4 h, sulforaphane 0.00 μM, read-out: Dm (median effect concentration) of 4-hydroxynonenal): 8.7 µM

CC(C)(C)OO [tert-Butyl hydroperoxide, Tert-Butyl hydroperoxide, reference compound]
mean slope m for tert-butyl hydroperoxide (ARPE-19 cells; [2]): 1.93
m (slope of median effect plot) for tert-butyl hydroperoxide (ARPE-19 cells; ARPE-19, tert-butyl hydroperoxide 16 h, sulforaphane 0.00 μM): 2.52
EC50 (ARPE-19 cells; ARPE-19, 16 h, read-out: Dm (median effect concentration) of tert-butyl hydroperoxide): 95.8 µM
EC50 (HaCaT cells; Homo sapiens, 8 h, read-out: Dm (median effect concentration) of tert-butyl hydroperoxide): 63.5 µM
slopes of the median effect plots for tert-butyl hydroperoxide (HaCaT cells; over the sulforaphane concentrations): 0.8-1.2
m (slope of median effect plot) for tert-butyl hydroperoxide (HaCaT cells; tert-butyl hydroperoxide 8 h, sulforaphane 0.00 μM): 0.899

O=NOO [Peroxynitrite, reference compound]
mean slope m for peroxynitrite (ARPE-19 cells; [2]): 6.29
m (slope of median effect plot) for peroxynitrite (ARPE-19 cells; ARPE-19, peroxynitrite (from SIN-1) 2 h, sulforaphane 0.00 μM): 6.07
EC50 (ARPE-19 cells; ARPE-19, 2 h, ARPE-19, peroxynitrite (from SIN-1) 2 h, sulforaphane 0.00 μM, read-out: Dm (median effect concentration) of peroxynitrite): 1440 µM
